In patent US11291719B2, “Methods and compositions for modulating Akt3” (Augusta University Research Institute, Inc., priority 2016, dated 2022):

Columns and labels:
TC-1 tumor = TC-1 tumor growth and survival, alone or with vaccine; format: in vivo, mouse; settings: high dose as monotherapy, lower dose combined with vaccine
Method: C57BL/6 mice (n=5/group) were injected s.c. in the right flank with 7×10^4 TC-1 cells. Mice from appropriate groups were injected weekly with vaccine (s.c.) or DMSO 5% as a control. Mice were also treated with vaccine (weekly) along with either 10 mg/kg or 20 mg/kg of JJ64-E injected (i.p.) every day starting on day 6 after tumor implantation throughout the experiment.
FIGS. 5B and 5C are bar diagrams showing average tumor volumes of mice for each group. FIG. 5D is a Kaplan-Meier plot of the overall survival. Statistical significance was determined by Log-rank (Mantel-Cox) test.
(§1) Statistical significance was determined by one-way ANOVA with Tukey's multiple comparison test (*, p<0.05; **, p<0.01; ***, p<0.001).
C57BL/6 mice (n=5/group) were injected s.c. in the right flank with 7×10^4 TC-1 cells. Mice from appropriate groups were injected weekly with vaccine (s.c.) or DMSO 5% as a control. Mice were also treated with vaccine (weekly) along with either 10 mg/kg or 20 mg/kg of JJ64-C(or FIG. 7A or Formula 18) injected (i.p.) every other day starting on day 6 after tumor implantation throughout the experiment.
FIGS. 7C and 7D are bar diagrams representing average tumor volumes of mice for each group. FIG. 7E is a Kaplan-Meier plot of the overall survival. Statistical significance was determined by Log-rank (Mantel-Cox) test.

[1] = system: CD8 and other (FoxP3neg) CD4 T cells; assay: TC-1 tumor model: percentage of CD4 and CD8 T cells by flow cytometry; format: in vivo, mouse; settings: 5 mg/kg or 10 mg/kg i.p. every day from day 10, analysed day 15
Method: WT C57BL/6 4-6 weeks old female mice (n=5/group) were injected s.c. in the right flank with 7×10^4 TC-1 cells. Mice from appropriate groups were treated with either 5 mg/kg or 10 mg/kg of JJ64-E injected (i.p.) everyday starting on day 10 after tumor implantation throughout the experiment. All groups were euthanized on day 15 of TC-1 implantation. The percentage of CD4 and CD8 were analyzed in splenic CD4+ cells by flow cytometry.

Akt1 = molecular target: T1, Akt1 (Mus musculus, UniProt P31750); assay: Immunoblot of pAkt1 in activated nTregs; format: cell-based; settings: 72 hrs
T1 construct: endogenous in cells; host or cells: primary mouse nTregs (C57BL/6J foxp3-GFP)
Method: (§2) FACS-sorted natural regulatory T cells (nTregs), from WT C57BL/6J (foxp3-GFP) mice were plated on anti-CD3-coated plates and cultured in activation media (IL2 and anti-CD28) without inhibitors (Stimulated) and with different concentrations of inhibitor 4-[(6-nitroquinolin-4-yl)amino]-N-[4-(pyridin-4-ylamino)phenyl]benzamide (also referred to as JJ64-E) for 72 hrs. For negative control (Non-stimulated-NS) cells were left in media containing IL-2 for 72 hrs. nTreg cell lysates prepared on day 3 (72 hrs) of treatment were separated by SDS-PAGE and immunoblotted with specific antibodies (pAkt1) or pAkt3; actin was used as loading control.

CD4+ and CD8+ T cells = assay: Proliferation (VCT, flow cytometry) of activated CD4+ and CD8+ T cells; format: cell-based, mouse; settings: 72 hrs, anti-CD3, IL2 and anti-CD28
Method: (§3) FACS-sorted nTregs, CD4+ and CD8+ T cells from C57BL/6J(foxp3-GFP) were plated on anti-CD3-coated plates and cultured in activation media (IL2 and anti-CD28) without inhibitors (Stimulated) and with inhibitors (JJ64-E) for 72 hrs. For negative control (Non-stimulated-NS) cells were left in media containing IL-2 for 72 hrs. After 72 hrs Proliferation (level of VCT) in live gated cells was measured by flow cytometry.

Tregs (CD4+Foxp3+) = assay: TC-1 tumor model: percentage of Tregs by flow cytometry; format: in vivo, mouse; settings: 5 mg/kg or 10 mg/kg i.p. every day from day 10, analysed day 15
Method: WT C57BL/6J mice (n=3/group) were injected s.c. in the right flank with 7×10^4 TC-1 cells. Mice from appropriate groups were treated with either 5 mg/kg or 10 mg/kg of JJ64-E injected (i.p.) every day starting on day 10 after tumor implantation throughout the experiment. All groups were euthanized on day 15 of TC-1 implantation. The percentage of Tregs (CD4+Foxp3+) was analyzed by flow cytometry.
as §1

nTregs = assay: Proliferation (VCT, flow cytometry) of activated nTregs; format: cell-based, mouse; settings: 72 hrs, anti-CD3, IL2 and anti-CD28
Method: as §3

Akt3 = molecular target: T2, Akt3 (Mus musculus, UniProt Q9WUA6); assay: Immunoblot of pAkt3 in activated nTregs; format: cell-based; settings: 72 hrs
T2 construct: nTreg cell lysates prepared on day 3 (72 hrs) of treatment were separated by SDS-PAGE and immunoblotted; endogenous in cells; host or cells: primary mouse nTregs (C57BL/6J foxp3-GFP)
Method: as §2

[2] = system: iTreg induction (CD4+FoxP3+ cells); assay: iTreg induction from CD4+FoxP3- cells with TGF-β (flow cytometry); format: cell-based; settings: 72 hrs, frequency of CD4+FoxP3+ cells
Method: FACS-sorted CD4+FoxP3− cells were plated on anti-CD3-coated plates with soluble IL2 and ant-CD28 with TGF-β (induction) Cell were induced for iTregs with JJ64-B (FIG. 6A) without inhibitor (Induction-IND)) or for 72 hrs. Cells were harvested and the frequency of CD4+FoxP3+ cells was measured by flow cytometry.
FACS-sorted CD4+FoxP3− cells were plated on anti-CD3-coated plates with soluble IL2 and ant-CD28 with TGF-β (induction) Cell were induced for iTregs with JJ64-C (JJ64 modified drug C or Formula 18) or without inhibitor (Induction-IND)) or for 72 hrs. Cells were harvested and the frequency of CD4+FoxP3+ cells was measured by flow cytometry.
FACS-sorted CD4+FoxP3− cells were plated on anti-CD3-coated plates with soluble IL2 and ant-CD28 with TGF-β (induction) Cell were induced for iTregs with JJ64-D (JJ64 modified drug D or FIG. 9A) or without inhibitor (Induction-IND)) or for 72 hrs. Cells were harvested and the frequency of CD4+FoxP3+ cells was measured by flow cytometry.

[3] = JJ64-E i.p. every day from day 6
[4] = JJ64-C i.p. every other day from day 6

T1 sequence (P31750 whole entry): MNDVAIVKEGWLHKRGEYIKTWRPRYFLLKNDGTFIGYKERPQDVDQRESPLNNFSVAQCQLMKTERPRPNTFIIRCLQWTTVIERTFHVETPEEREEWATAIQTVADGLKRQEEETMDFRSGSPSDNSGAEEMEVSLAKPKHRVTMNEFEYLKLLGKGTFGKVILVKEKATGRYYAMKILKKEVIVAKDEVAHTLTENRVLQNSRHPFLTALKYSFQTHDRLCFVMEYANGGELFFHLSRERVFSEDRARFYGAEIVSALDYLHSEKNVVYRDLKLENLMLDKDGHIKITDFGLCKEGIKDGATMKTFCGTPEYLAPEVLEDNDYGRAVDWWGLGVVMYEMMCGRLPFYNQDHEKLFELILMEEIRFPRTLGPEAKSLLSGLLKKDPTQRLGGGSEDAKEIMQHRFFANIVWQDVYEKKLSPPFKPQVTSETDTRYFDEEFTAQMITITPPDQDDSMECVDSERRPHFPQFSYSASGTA
T2 sequence (Q9WUA6 whole entry): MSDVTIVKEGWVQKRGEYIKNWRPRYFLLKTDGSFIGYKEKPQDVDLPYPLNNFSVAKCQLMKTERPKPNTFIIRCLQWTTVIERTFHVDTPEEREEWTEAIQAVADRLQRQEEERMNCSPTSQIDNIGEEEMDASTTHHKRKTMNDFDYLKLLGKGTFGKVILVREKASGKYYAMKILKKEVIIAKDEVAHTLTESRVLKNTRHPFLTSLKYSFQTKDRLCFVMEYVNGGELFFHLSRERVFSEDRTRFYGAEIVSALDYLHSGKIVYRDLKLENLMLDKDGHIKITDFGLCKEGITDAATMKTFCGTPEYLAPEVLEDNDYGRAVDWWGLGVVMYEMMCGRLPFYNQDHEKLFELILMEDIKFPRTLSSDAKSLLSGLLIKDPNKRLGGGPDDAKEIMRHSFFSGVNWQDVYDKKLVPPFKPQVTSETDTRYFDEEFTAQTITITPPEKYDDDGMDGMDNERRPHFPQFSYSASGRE

SMILES | TC-1 tumor growth (TC-1 tumor; [3]) | survival of TC-1 tumor mice (TC-1 tumor; [3]) | CD8 and other (FoxP3neg) CD4 T cells in TC-1 tumor model [1] | Akt1 phosphorylation in Tregs (Akt1) | proliferation of CD8 and other CD4 T cells (CD4+ and CD8+ T cells) | Tregs in vivo in TC-1 tumor model (Tregs (CD4+Foxp3+)) | Treg proliferation (nTregs) | Akt3 phosphorylation in Tregs (Akt3) | TC-1 tumor growth (TC-1 tumor; [4]) | survival of TC-1 tumor mice (TC-1 tumor; [4]) | iTreg induction [2]
O=C(Nc1ccc(Nc2ccncc2)cc1)c1ccc(Nc2ccnc3ccc([N+](=O)[O-])cc23)cc1 [Compound 1, 4-[(6-nitroquinolin-4-yl)amino]-N-[4-(pyridin-4-ylamino)phenyl]benzamide] | inhibits | prolongs | does not affect | not | sparing | decreases | selectively inhibits | inhibits | – | – | –
O=C(Nc1cccc(Nc2ccncc2)c1)c1cccc(Nc2ccnc3ccc(F)cc23)c1 [Compound 18] | – | – | – | – | – | – | – | – | inhibits | prolongs | inhibits
